Reference: patent publication US20230233533A1, “COMPOSITIONS, METHODS OF TREATING AND PREVENTING FUNGAL INFECTIONS, AND METHODS OF INHIBITING PRP8 INTEIN EXPRESSION” (Health Research, Inc., priority 2020, published 2023)
Values after ≈ are worked out from the molar mass of the structure shown.

Tests used:
C. neoformans H99 strain = experiment: Fungal susceptibility test, broth microdilution MIC; type: cell-based, Cryptococcus neoformans; settings: Cryptococcus neoformans, H99STRAIN; C. neoformans H99, microbroth dilution; read-out: MIC H99
Procedure: Fungal susceptibility test—The fungal susceptibility test was carried out with a compound concentration series as described. […] The broth microdilution method was used to determine the compound MIC values against C. neoformans.
Fungal susceptibility test—The fungal susceptibility test was carried out with a compound concentration series as described. […] Microbes. Infect. […] The broth microdilution method was used to determine the compound MIC values against C. neoformans.

Prp8 intein [1] = biological target: T1, Prp8 intein (Cryptococcus gattii, UniProt E6R027); experiment: Split Cys-free (Cf) GFP-Prp8 intein splicing assay; type: biochemical; settings: read-out: IC50 CfGFP-Prp8 (converted)
Procedure: (§1) The constructs for Cys-free (Cf) GFP-Prp8 and Cys-free nanoluciferase NnLuc-Prp8 were codon-optimized, synthesized, and cloned into the pET28a vector using the NcoI and XhoI sites by Gene Universal (Gene Universal, Newark Del.). […] The expression, refolding and purification of the CfGFP-Prp8 and NnLuc-Prp8 fusion proteins were carried out as described previously. […] Microbes. Infect.
Split GFP-Prp8 and CJGFP-Prp8 intein splicing assays—Using black and clear bottom 96-well plates, the DPNB-treated, -refolded and -concentrated GFP-Prp8 or CfGFP-Prp8 fusion protein (0.5 μM) was incubated with compounds or Dimethylsulfoxide (DMSO) solvent control for 30 min at 25° C. in a 100 μl intein splicing buffer (20 mM Bis-tris propane, 0.5 M NaCl, 0.5 M arginine, 1 mM EDTA, and 0.05% CHAPS). Then 100 μl 2×TCEP was added to a final concentration of 20 μM. The reactions were incubated at 25° C. overnight. […] Two readings were taken, one prior to addition of TCEP (I0) and one after incubation overnight with TCEP (If). Fluorescence/luminescence differences (ΔFluorescence or ΔLuminescence) were defined as If−I0 for each well. […] DMSO control served as 100% splicing activity.

Prp8 intein [2] = biological target: T1, Prp8 intein; experiment: Split nanoluciferase NnLuc-Prp8 intein splicing assay; type: biochemical
Procedure: as §1
Split luciferase RLuc-Prp8 and NnLuc-Prp8 intein splicing assays—The split RLuc-Prp8 intein splicing assay was carried out and monitored using a Veritas luminometer, as described previously. […] Microbes. Infect. […] For NnLuc-Prp8 intein splicing assay, the NnLuc-prp8 is diluted in assay buffer (50 mM Tris, 0.1% BSA, 1 mM EDTA, pH 7.4) and 50 ul is added to each well in 96 well black plates. Test molecules or the solvent was added and incubated for 30 to 60 min. A splicing inducer TCEP (50 ul, 100 μM) is added and incubated for 24 h. Luciferase substrate (Furimazine, 25 ul 1:10,000 diluted) is added and luminescence is read using a luminescence reader. IC50 is calculated using Graphpad prism.

in vitro = type: cell-based, human; settings: human, CC50 A549
Procedure: Cytotoxicity—Cytotoxicity assays were carried out using human lung carcinoma cell line A549, as described (Chen et al., “Selective Inhibition of the West Nile Virus Methyltransferase by Nucleoside Analogs,” Antiviral Research 97(3):232-239 (2013), which is hereby incorporated by reference in its entirety). Briefly, the A549 cells (5×10^3) were incubated with/without compounds in a 96-well plate at 37° C. for 48 h. Cell viability was determined using the MTT assay (ATCC) as was described previously (Chen et al., “Selective Inhibition of the West Nile Virus Methyltransferase by Nucleoside Analogs,” Antiviral Research 97(3):232-239 (2013) and Brecher et al., “Identification and Characterization of Novel Broad-Spectrum Inhibitors of the Flavivirus Methyltransferase,” ACS Infectious Diseases 1(8):340-349 (2015), both of which are hereby incorporated by reference in their entirety). N=3.
Cytotoxicity—Cytotoxicity assays were carried out using human lung carcinoma cell line A549, as described. Chen et al., “Selective Inhibition of the West Nile Virus Methyltransferase by Nucleoside Analogs,” Antiviral Res. 97:232-9 (2013), which is hereby incorporated by reference in its entirety. Briefly, the A549 cells (5×10^3) were incubated with/without compounds in a 96-well plate at 37° C. for 48 h. Cell viability was determined using the MTT assay (ATCC) as was described previously (Chen et al., “Selective Inhibition of the West Nile Virus Methyltransferase by Nucleoside Analogs,” Antiviral Research 97(3):232-239 (2013) and Brecher et al., “Identification and Characterization of Novel Broad-Spectrum Inhibitors of the Flavivirus Methyltransferase,” ACS Infectious Diseases 1(8):340-349 (2015), both of which are hereby incorporated by reference in their entirety). N=3.

T1 sequence (E6R027 entry or part of it): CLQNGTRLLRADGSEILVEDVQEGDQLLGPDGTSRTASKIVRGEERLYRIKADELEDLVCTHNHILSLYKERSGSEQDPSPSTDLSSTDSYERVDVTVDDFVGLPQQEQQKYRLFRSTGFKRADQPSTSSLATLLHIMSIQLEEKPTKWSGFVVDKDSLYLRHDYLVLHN

Compound	MIC (C. neoformans H99 strain) [µM]	IC50 (Prp8 intein [1]) [µM]	IC50 (Prp8 intein [2]) [µM]	CC50 at 48 h (in vitro) [µM]
O=C(Nc1ccccc1F)c1nnsc1S(=O)(=O)c1ccc(Cl)cc1 [JMX872, 5-((4-Chlorophenyl)sulfonyl)-N-(2-fluorophenyl)-1,2,3-thiadiazole-4-carboxamide]	> 50	28.3	31.8	162
O=C(Nc1ccc(F)c(F)c1)c1nnsc1S(=O)(=O)c1ccc(Cl)cc1 [JMX876, 5-((4-Chlorophenyl)sulfonyl)-N-(3,4-difluorophenyl)-1,2,3-thiadiazole-4-carboxamide]	3.12 (≈ 1.3 µg/mL)	33.5	22	163
Cc1ccc(NC(=O)c2nnsc2S(=O)(=O)c2ccc(Cl)cc2)cc1 [JMX1033, 5-((4-chlorophenyl)sulfonyl)-N-(p-tolyl)-1,2,3-thiadiazole-4-carboxamide]	> 50	35.2	45.9	156
Cc1ccc(NC(=O)c2nnsc2[S+]([O-])c2ccc(Cl)cc2)cc1 (stereo not shown) [JMX1033-2]	> 50	47.3	3.8	74.6
O=C(Nc1ccc(Br)cc1)c1nnsc1S(=O)(=O)c1ccc(Cl)cc1 [JMX1034, N-(4-Bromophenyl)-5-((4-chlorophenyl)sulfonyl)-1,2,3-thiadiazole-4-carboxamide]	> 50	33.1	15.4	84.8
O=C(Nc1ccccc1)c1nnsc1S(=O)(=O)c1ccc(Cl)cc1 [JMX1035, 5-((4-Chlorophenyl)sulfonyl)-N-phenyl-1,2,3-thiadiazole-4-carboxamide]	6.25 (≈ 2.37 µg/mL)	38.4	33.9	84.1
O=C(Nc1cc(F)cc(Cl)c1)c1nnsc1S(=O)(=O)c1ccc(Cl)cc1 [JMX1036, N-(3-Chloro-5-fluorophenyl)-5-((4-chlorophenyl)sulfonyl)-1,2,3-thiadiazole-4-carboxamide]	1.56 (≈ 0.674 µg/mL)	32.9	21.4	70.9
O=C(Nc1ccc(F)c(Cl)c1)c1nnsc1S(=O)(=O)c1ccc(Cl)cc1 [JMX1037, N-(3-Chloro-4-fluorophenyl)-5-((4-chlorophenyl)sulfonyl)-1,2,3-thiadiazole-4-carboxamide]	25 (≈ 10.8 µg/mL)	31.4	14.1	63.2
O=C(Nc1cc(F)cc(F)c1)c1nnsc1S(=O)(=O)c1ccc(Cl)cc1 [JMX1038, 5-((4-Chlorophenyl)sulfonyl)-N-(3,5-difluorophenyl)-1,2,3-thiadiazole-4-carboxamide]	> 50	37.1	37.4	54.2
O=C(Nc1cc(F)cc(C(F)(F)F)c1)c1nnsc1S(=O)(=O)c1ccc(Cl)cc1 [JMX1040, 5-((4-chlorophenyl)sulfonyl)-N-(3-fluoro-5-(trifluoromethyl)phenyl)-1,2,3-thiadiazole-4-carboxamide]	3.12 (≈ 1.45 µg/mL)	32.8	20.6	56.3
O=C(Nc1cc(C(F)(F)F)cc(C(F)(F)F)c1)c1nnsc1S(=O)(=O)c1ccc(Cl)cc1 [JMX1041, N-(3,5-Bis(trifluoromethyl)phenyl)-5-((4-chlorophenyl)sulfonyl)-1,2,3-thiadiazole-4-carboxamide]	> 50	37.9	18.5	66.7
O=C(Nc1ccc(C(F)(F)F)cc1Cl)c1nnsc1S(=O)(=O)c1ccc(Cl)cc1 [JMX1042, N-(2-Chloro-4-(trifluoromethyl)phenyl)-5-((4-chlorophenyl)sulfonyl)-1,2,3-thiadiazole-4-carboxamide]	> 50	41.5	10.9	98.7
O=C(Nc1ccc([N+](=O)[O-])cc1F)c1nnsc1S(=O)(=O)c1ccc(Cl)cc1 [JMX1043, 5-((4-Chlorophenyl)sulfonyl)-N-(2-fluoro-4-nitrophenyl)-1,2,3-thiadiazole-4-carboxamide]	> 50	38.1	19.6	66.9
O=C(Nc1cc(F)c(F)c(F)c1)c1nnsc1S(=O)(=O)c1ccc(Cl)cc1 [JMX1044, 5-((4-Chlorophenyl)sulfonyl)-N-(3,4,5-trifluorophenyl)-1,2,3-thiadiazole-4-carboxamide]	> 50	31.8	16.3	47.8
O=C(Nc1cc(F)c(F)c(F)c1)c1nnsc1[S+]([O-])c1ccc(Cl)cc1 (stereo not shown) [JMX1044-2, 5-((4-Chlorophenyl)sulfinyl)-N-(3,4,5-trifluorophenyl)-1,2,3-thiadiazole-4-carboxamide]	> 50	26.9	4.4	47.5
O=C(Nc1c(F)cc(F)cc1F)c1nnsc1S(=O)(=O)c1ccc(Cl)cc1 [JMX1045, 5-((4-Chlorophenyl)sulfonyl)-N-(2,4,6-trifluorophenyl)-1,2,3-thiadiazole-4-carboxamide]	> 50	34.3	15.9	47.9
O=C(Nc1c(F)cc(F)cc1F)c1nnsc1[S+]([O-])c1ccc(Cl)cc1 (stereo not shown) [JMX1045-2, 5-((4-Chlorophenyl)sulfinyl)-N-(2,4,6-trifluorophenyl)-1,2,3-thiadiazole-4-carboxamide]	3.12 (≈ 1.3 µg/mL)	27.4	8.6	61
O=C(Nc1ccc(Cl)c(F)c1)c1nnsc1S(=O)(=O)c1ccc(Cl)cc1 [JMX1046, N-(4-Chloro-3-fluorophenyl)-5-((4-chlorophenyl)sulfonyl)-1,2,3-thiadiazole-4-carboxamide]	> 50	34.1	20.1	145
O=C(Nc1ccc(Cl)c(F)c1)c1nnsc1[S+]([O-])c1ccc(Cl)cc1 (stereo not shown) [JMX1046-2, N-(4-Chloro-3-fluorophenyl)-5-((4-chlorophenyl)sulfinyl)-1,2,3-thiadiazole-4-carboxamide]	1.56 (≈ 0.649 µg/mL)	32.2	7.5	149
O=C(Nc1ccc(F)cc1)c1nnsc1S(=O)(=O)c1ccc(Cl)cc1Cl [JMX1059, 5-((2,4-Dichlorophenyl)sulfonyl)-N-(4-fluorophenyl)-1,2,3-thiadiazole-4-carboxamide]	12.5 (≈ 5.4 µg/mL)	31.9	20.9	68.1
O=C(Nc1ccc(F)cc1)c1nnsc1S(=O)(=O)c1ccc(F)c(F)c1 [JMX1060, 5-((3,4-Difluorophenyl)sulfonyl)-N-(4-fluorophenyl)-1,2,3-thiadiazole-4-carboxamide]	50 (≈ 20 µg/mL)	32.8	23.5	61.1
O=C(Nc1ccc(F)cc1)c1nnsc1S(=O)(=O)c1ccc(F)cc1 [JMX1061, N-(4-Fluorophenyl)-5-((4-fluorophenyl)sulfonyl)-1,2,3-thiadiazole-4-carboxamide]	> 50	51.3	23.7	71.7
